Test results as given in US10434186B2, “Functionalized linear ligands and complexes thereof” (LUMIPHORE, INC., priority 2014, dated 2019).
Counter-ions that a name gives are not always drawn.

Columns and labels:
[1] = Molar extinction coefficient from absorption spectrum in 0.1 M TRIS buffer; type: physicochemical
Protocol: This corresponds to 1.218×10^−6 moles of ligand in 50 mL and c=2.436×10^−5 M. A=ϵcl, at λmax, A=0.42853 at 327 nm. […] This corresponds to 2.472×10^−6 moles of ligand in 50 mL and c=4.945×10^−5 M. A=ϵcl; at λmax, A=0.96915 at 315 nm.

[2] = Eu(III) complex of the ligand; cited from earlier work
[3] = in 0.5 M H2SO4; cited from earlier work

Cl.NCCOCCNC(=O)C(CCCN(CCCNC(=O)c1cccc(=O)n1O)C(=O)c1cccc(=O)n1O)N(CCCNC(=O)c1cccc(=O)n1O)C(=O)c1cccc(=O)n1O (centres unmarked) [Compound 2-8]
ϵ280/ϵ327 ratio for protein labelling ([1]; 0.1 M TRIS buffer pH 7.4): 3.11 | extinction coefficient ϵ at 327 nm (λmax) ([1]; 0.1 M TRIS buffer pH 7.4, 1 cm cuvette, based on CHN): ~17,595 M^−1 cm^−1 | extinction coefficient at 280 nm ([1]; 0.1 M TRIS buffer pH 7.4, 280 nm): ~5655 M⁻¹ cm⁻¹

O=C(NCCCN(CCCCN(CCCNC(=O)c1cccc(=O)n1O)C(=O)c1cccc(=O)n1O)C(=O)c1cccc(=O)n1O)c1cccc(=O)n1O [3,4,3-LI(1,2-HOPO)]
quantum yield of Eu(III) complex [2]: ~20%

C=C[C@H]1C[N@@]2CC[C@H]1C[C@H]2[C@H](O)c1ccnc2ccc(OC)cc12 [Quinine Sulfate]
reference quantum yield Φref [3]: 0.546
